# From patent US9504685B2, “Method for treating a pulmonary hypertension condition” (Gilead Sciences, Inc., priority 2006, dated 2016)
# Tested on: subjects with PAH
# Assay: Example 1 (ARIES-2) placebo-controlled Phase III trial, efficacy
# Format: in vivo, human
# Conditions: for Change in 6MWD from baseline to Week 12, mean / Week 12 6MWD, mean: ITT population; for geometric mean percent change in plasma ET-1, increase from baseline / geometric mean plasma BNP, decrease from baseline / mean BDI change from baseline: Week 12
# Description: The primary objective of this study was to determine the effect of ambrisentan on exercise capacity in subjects with PAH. The secondary objectives of this study were to evaluate effects of ambrisentan on other clinical measures of PAH, as well as safety and tolerability of the study drug.
# Study drug was provided in round, biconvex, oral tablets that were identical in appearance. Three strengths of active study drug, containing 1 mg, 2.5 mg or 5 mg of ambrisentan, were used in this study. All study drug was packaged in blister cards. Subjects were instructed to take study drug once daily (q.d.) by mouth (p.o.) in the morning, with or without food.
# The maximum study duration was up to 14 weeks from the time of initial screening procedures to the final study visit (Week 12). Screening procedures were performed a maximum of 2 weeks prior to the first dose of study drug. The maximum duration of study drug treatment was 12 weeks.
# Men and women, 18 years of age or older, with idiopathic PAH, PAH associated with connective tissue disease (CTD), e.g., mixed CTD, CREST syndrome, systemic sclerosis (scleroderma), overlap syndrome or systemic lupus erythematosus, or PAH associated with anorexigen use or HIV infection were enrolled in this study. Subjects were to have a documented mean PAP≧25 mmHg, PVR>3 mmHg/L/min, and PCWP or LVEDP<15 mmHg. Subjects must have been able to walk a distance of at least 150 m but no more than 450 m during 2 consecutive 6MWTs to be eligible for inclusion in the study.
# After a 2 week screening period, eligible subjects were stratified based on the underlying etiology of PAH (idiopathic or non-idiopathic) and were randomized to 1 of 3 treatment groups (placebo, 2.5 mg or 5 mg ambrisentan) in a ratio of 1:1:1. One blinded dose reduction was permitted during the 12-week treatment period in the event of study drug intolerance (e.g., 5 mg to 2.5 mg, 2.5 mg to 1 mg, placebo to placebo). Subjects received a daily dose of 1 mg ambrisentan only if they reduced from the 2.5 mg dose group. Subjects were assessed for efficacy and safety at monthly intervals.
# Therefore, after a minimum treatment period of 4 weeks, subjects who met 2 or more of the following predefined early escape criteria may have been removed from the study: • (a) a decrease from baseline of at least 20% in 6MWD; • (b) an increase of 1 or more WHO functional class; • (c) worsening right ventricular failure (e.g., as indicated by increased jugular venous pressure, new or worsening hepatomegaly, ascites or peripheral edema); • (d) rapidly progressing cardiogenic, hepatic or renal failure; and/or • (e) refractory systolic hypotension (systolic blood pressure <85 mmHg).
# The primary efficacy endpoint was change from baseline in 6MWD evaluated after 12 weeks of treatment compared to placebo.
# The secondary efficacy endpoints included: • (a) time to clinical worsening of PAH, as defined by the time from randomization to the first occurrence of death, lung transplantation, hospitalization for PAH, atrial septostomy, study discontinuation due to addition of other PAH therapeutic agents, or study discontinuation due to 2 or more early escape criteria; • (b) change from baseline measured after 12 weeks of treatment compared to placebo in: • (i) WHO functional class; • (ii) SF-36® health survey physical functioning scale; • (iii) BDI immediately following exercise; and/or • (iv) an assessment of the safety and tolerability of the study drug; and • (c) change from baseline measured after 12 weeks of treatment compared to placebo in plasma levels of ET-1, cTnT and BNP. Safety Assessments
# For the ITT population, subjects were considered as belonging to their randomized treatment group, regardless of the actual treatment received.
# The primary efficacy endpoint was the change from baseline in 6MWD evaluated after 12 weeks of treatment compared to placebo, where the last observation was carried forward. […]
# [1] = 2.5 mg once daily, baseline to Week 12
# [2] = 5 mg once daily, baseline to Week 12
smiles,measurement,setting,value
COC(c1ccccc1)(c1ccccc1)[C@H](Oc1nc(C)cc(C)n1)C(=O)O [ambrisentan],placebo-adjusted improvement in mean 6MWD at Week 12,2.5 mg once daily,+32.3 m
same,subjects at least maintaining their baseline WHO functional class at Week 12,2.5 mg once daily,95.3%
same,Clinical worsening event: Atrial septostomy,"2.5 mg once daily, 12 weeks",0 (0.0) subjects (% of ITT population)
same,Clinical worsening event: Death,"2.5 mg once daily, 12 weeks",2 (3.1) subjects (% of ITT population)
same,Clinical worsening event: Escape criteria,"2.5 mg once daily, 12 weeks",2 (3.1) subjects (% of ITT population)
same,Clinical worsening event: Hospitalization for PAH,"2.5 mg once daily, 12 weeks",3 (4.7) subjects (% of ITT population)
same,Clinical worsening event: Lung transplantation,"2.5 mg once daily, 12 weeks",0 (0.0) subjects (% of ITT population)
same,Clinical worsening event: Study withdrawal due to addition of PAH treatment,"2.5 mg once daily, 12 weeks",0 (0.0) subjects (% of ITT population)
same,Clinical worsening: Total subjects with ≧1 event,"2.5 mg once daily, 12 weeks",3 (4.7) subjects (% of ITT population)
same,subjects who experienced an event of clinical worsening,"2.5 mg once daily, 12 weeks",4.7%
same,"Change in 6MWD from baseline to Week 12, mean",2.5 mg once daily,+22.2 meters
same,"Week 12 6MWD, mean",2.5 mg once daily,369.6 meters
same,"geometric mean percent change in plasma ET-1, increase from baseline",2.5 mg once daily,19%
same,"geometric mean plasma BNP, decrease from baseline",2.5 mg once daily,29%
same,mean BDI change from baseline,2.5 mg once daily,−0.20
same,"Change in SF-36 Bodily pain, mean (SD)",[1],+2.34 (11.87)
same,"Change in SF-36 General health, mean (SD)",[1],+3.84 (6.71)
same,"Change in SF-36 Mental component summary, mean (SD)",[1],+4.05 (10.30)
same,"Change in SF-36 Mental health, mean (SD)",[1],+4.98 (9.70)
same,"Change in SF-36 Physical component summary, mean (SD)",[1],+3.78 (7.63)
same,"Change in SF-36 Physical functioning, mean (SD)",[1],+3.86 (7.14)
same,"Change in SF-36 Role-emotional, mean (SD)",[1],+3.11 (12.90)
same,"Change in SF-36 Role-physical, mean (SD)",[1],+5.87 (11.72)
same,"Change in SF-36 Social functioning, mean (SD)",[1],+4.55 (9.72)
same,"Change in SF-36 Vitality, mean (SD)",[1],+4.07 (9.12)
same,Change in WHO functional class: +1 class,[1],2 (3.1) subjects (% of ITT population)
same,Change in WHO functional class: +2 classes,[1],1 (1.6) subjects (% of ITT population)
same,Change in WHO functional class: no change,[1],51 (79.7) subjects (% of ITT population)
same,Change in WHO functional class: −1 class,[1],10 (15.6) subjects (% of ITT population)
same,Change in WHO functional class: −2 classes,[1],0 (0.0) subjects (% of ITT population)
same,placebo-adjusted improvement in mean 6MWD at Week 12,5 mg once daily,+59.4 m
same,subjects at least maintaining their baseline WHO functional class at Week 12,5 mg once daily,96.8%
same,Clinical worsening event: Atrial septostomy,"5 mg once daily, 12 weeks",0 (0.0) subjects (% of ITT population)
same,Clinical worsening event: Death,"5 mg once daily, 12 weeks",0 (0.0) subjects (% of ITT population)
same,Clinical worsening event: Escape criteria,"5 mg once daily, 12 weeks",1 (1.6) subjects (% of ITT population)
same,Clinical worsening event: Hospitalization for PAH,"5 mg once daily, 12 weeks",2 (3.2) subjects (% of ITT population)
same,Clinical worsening event: Lung transplantation,"5 mg once daily, 12 weeks",0 (0.0) subjects (% of ITT population)
same,Clinical worsening event: Study withdrawal due to addition of PAH treatment,"5 mg once daily, 12 weeks",0 (0.0) subjects (% of ITT population)
same,Clinical worsening: Total subjects with ≧1 event,"5 mg once daily, 12 weeks",3 (4.8) subjects (% of ITT population)
same,subjects hospitalized for worsening right heart failure,"5 mg once daily, 12 weeks",1 subjects
same,subjects who experienced an event of clinical worsening,"5 mg once daily, 12 weeks",4.8%
same,"Change in 6MWD from baseline to Week 12, mean",5 mg once daily,+49.4 meters
same,"Week 12 6MWD, mean",5 mg once daily,404.7 meters
same,"geometric mean percent change in plasma ET-1, increase from baseline",5 mg once daily,72%
same,"geometric mean plasma BNP, decrease from baseline",5 mg once daily,30%
same,mean BDI change from baseline,5 mg once daily,−0.36
same,"Change in SF-36 Bodily pain, mean (SD)",[2],+0.46 (9.99)
same,"Change in SF-36 General health, mean (SD)",[2],+4.95 (8.05)
same,"Change in SF-36 Mental component summary, mean (SD)",[2],+6.28 (11.64)
same,"Change in SF-36 Mental health, mean (SD)",[2],+4.03 (10.13)
same,"Change in SF-36 Physical component summary, mean (SD)",[2],+2.97 (7.79)
same,"Change in SF-36 Physical functioning, mean (SD)",[2],+2.96 (6.81)
same,"Change in SF-36 Role-emotional, mean (SD)",[2],+8.15 (14.43)
